Laboratory results from EP4659739A9, “TOPICAL FORMULATION COMPRISING NON-COVALENT KERATIN-ACTIVE AGENT CONJUGATES FOR THERAPEUTIC USE” (Rigi Therapeutics AG, priority 2024, dated 2025).

How the values were obtained:
[1] = Penetration kinetics of Mometasonfuroat, Franz diffusion cell, HPLC; format: in vitro ADME, human
Protocol: Um den Einfluss von monomerem beta-Keratin auf die Pharmakokinetik von Wirkstoffen nachzuweisen, wurde in einer halbfesten Cremematrix (Monovo® 1 mg/g Creme) gelöstes Mometasonfuroat, als Modellwirkstoff mit 2% Keratinpartikeln versetzt und zur Ausbildung von nicht-kovalenten Proteine-Wirkstoff-Konjugaten homogen verrührt und inkubiert. Zur Objektivierung der pharmakokinetischen Unterschiede wurde eine Diffusionskinetik der Formulierung ohne und mit Beimischung von Keratinpartikeln vergleichend bestimmt.
In der vorliegenden Studie wurde eine HPLC-Methode zur Quantifizierung von Mometasonfuroat in Proben aus der Penetrationsstudie verwendet. Es wurde eine analytische HPLC-UV-Methode entwickelt und validiert. Zur Bestimmung der Wiederfindung wurden dazu 3 Proben der Prüfformulierung mit 1,8 mL Lösungsmittel 1 h lang inkubiert (Laborschüttler, 150 U/min), anschließend zentrifugiert (13.000 U/min, 10 min) und gemessen. Die Wiederfindungsraten wurden mit den experimentell ermittelten Konzentrationen der Prüfgegenstände berechnet. Werte zwischen 95 % und 105 % wurden als unbeeinflusst und damit als korrekt angenommen.
Für jede Testformulierung wurden drei Humanhautproben, d. h. von drei verschiedenen Spendern untersucht. Jede Hautprobe ergab drei Stanzbiopsien zu drei verschiedenen Zeitpunkten, d. h. insgesamt […] Proben je Testformulierung. […]

[2] = system: Chorion-Allantois-Membran; experiment: HET-CAM, preclinical tolerability; parameters: species or system Gallus gallus domesticus
Protocol: Als Screening hinsichtlich der Hautverträglichkeit der Keratinpartikel wurde dieses in eine halbfeste Formulierung eingearbeitet und an der Chorion-Allantois-Membran von acht- bis neuntägigen Gallus gallus domesticus Embryonen (Rasse: New Hampshire) getestet.
Die Hautverträglichkeit der Keratinpartikel wurde an der Chorion-Allantois-Membran von acht- bis neuntägigen Hühnerembryonen getestet. Befruchtete Hühnereier wurden hierfür acht bis neun Tage lang bei 37°C und 55 % Luftfeuchtigkeit bebrütet. Alle 12 Stunden wurden die Eier gewendet, ausgenommen die letzten 24 Stunden vor Versuchsbeginn. Die Öffnung der Eier wurde an den nach oben gerichteten Eierpolen durchgeführt, wofür die Eierschalen kreisrund (Ø 1,5 cm) geöffnet wurden. Nach dem Abnehmen der Eischalen wurden die Eihäute mit einer 37°C warmen 0,9%-igen NaCl-Lösung befeuchtet. Anschließend wurden unter der Sterilbank die äußeren Eihäute mittels Schere und Pinzette entfernt und die Chorion-Allantois-Membranen freigelegt. […] Die halbfeste Keratinpartikel-haltige Formulierung konnte nun an den gut ausgebildeten und unbeschädigten Blutgefäßen der Chorion-Allantois-Membranen aufgetragen und getestet werden. Das Testpräparat wurde an insgesamt sechs Eiern getestet, maximal 30 Minuten nach der Öffnung der Eier.
Im Rahmen der HET-CAM Untersuchungen wurden von dem Testpräparat (2,88 mg/ml kolloidale Keratin-Lösung in 0,5 % Hydoxyethylcellulose-Gel) je 200 µl auf die Chorion-Allantois-Membran appliziert und diese für insgesamt 300 Sekunden beobachtet. Während dieser Zeit wurden die Veränderungen an der Membran, hinsichtlich des Zeitpunktes des Auftretens (Irritationsscore, IS) und der Festlegung des Schweregrades zum Ende der Beobachtungszeit, dokumentiert. Hierbei wurden folgende Kriterien bewertet: Hämorrhagien (H) - das Auftreten von Blutungen; Gefäßlyse (L) - das Transparentwerden von Gefäßen und Koagulation (C) - das Stagnieren des Blutflusses als Zeichen der intravasalen Gerinnung. Als Negativkontrolle wurde steriles Wasser und als Positivkontrolle eine 1 %-ige Natriumlaurysulfat-Lösung eingesetzt. Die Berechnung des Irritationsscores (IS) erfolgte anhand der ICCVAM-Kriterien.
Als Bewertungskriterien des ISs wurden folgende Grenzwerte definiert:
Der Schweregrad von Veränderungen zum Ende des Beobachtungszeitraums wurde nach den folgenden Kriterien eingestuft:
Die Hämorrhagie (H) wurde entsprechend des Ausmaßes von Erythrozytenextravasaten den Kategorien halbquantitativ wie folgt zugeordnet: Einzelne Kapillarblutungen bei morphologisch intakten Kapillaren wurden als leichte, multiple Kapillarblutungen bei morphologisch intakten Kapillaren als mäßige und morphologisch geschädigte Kapillaren mit Kapillarblutungen oder Massenblutungen als schwere Hämorrhagie eingestuft. Vereinzelte transparente Kapillarabschnitte wurden als leichte, die Transparenz von ganzen Kapillaren als mäßige und das Auftreten von kompletten Gefäßlysen als schwere Lyse bewertet. Die Koagulation (C) wurde entsprechend des Ausmaßes von Koagulationsphänomenen den Kategorien halbquantitativ wie folgt zugeordnet: Einzelne Kapillarthrombosen bei morphologisch intakten Kapillaren wurden als leichte, multiple Kapillarthrombosen bei morphologisch intakten Kapillaren als mäßige und geschädigte Kapillaren mit langstreckigen Kapillarthrombosen als schwere C eingestuft. Die eingesetzten Hühnereier wurden nach einer Lagerung für 48 Stunden bei -20°C, hygienisch entsorgt. Tab.

[3] = summary Tab. 7, mean severity after 300 s

Structure (SMILES)	kutane Bioverfügbarkeit [1]	IS-C ([2]; summary Tab. 7)	IS-Gesamt ([2]; summary Tab. 7)	IS-H ([2]; summary Tab. 7)	IS-L ([2]; summary Tab. 7)	SG-C [2, 3]	SG-H [2, 3]	SG-L [2, 3]
C[C@@H]1C[C@H]2[C@@H]3CCC4=CC(=O)C=C[C@]4(C)[C@@]3(Cl)[C@@H](O)C[C@]2(C)[C@@]1(OC(=O)c1ccco1)C(=O)CCl [Mometasonfuroat]	keinen relevanten Einfluss							
CCCCCCCCCCCCOS(=O)(=O)O [1 % Natriumlaurylsulfat-Lösung, Natriumlaurylsulfat]		6,01	9,80	2,89	0,90	3,00	1,67	0,42
